Active and inactive are the calls of the source. No cut-off for these calls is given here.
Legend:
[1] = Stability in PBS buffer at pH 6.5 assessed as half life for compound hydrolysis by HPLC method; format: physicochemical
[2] = Stability in PBS buffer at pH 7.4 assessed as half life for compound hydrolysis by HPLC method; format: physicochemical
[3] = Stability in PBS buffer at pH 8 assessed as half life for compound hydrolysis by HPLC method; format: physicochemical
Homo sapiens [4] = species: Homo sapiens; assay: Inhibition of human erythrocyte 20S proteasome at 0.002 to 400 uM using Suc-LLVY-AMC substrate incubated for 1 hr by fluorescence assay
Homo sapiens [5] = species: Homo sapiens; assay: Inhibition of human erythrocyte 20S proteasome at 0.002 to 400 uM using compounds dissolved in 20% v/v DMSO in presence of Suc-LLVY-AMC substrate incubated for 1 hr by fluorescence assay

Compound | half-life [1] [h] | half-life [2] [h] | half-life [3] [h] | inhibition (Homo sapiens [4]) | inhibition (Homo sapiens [5])
CC(C)C[C@@H](CNC(=O)[C@H](CC(C)C)NC(=O)[C@H](CC(C)C)NC(=O)[C@H](CC(C)C)NC(=O)OCc1ccccc1)S(=O)(=O)F | 5 to 7 | 5 to 7 | 5 to 7 | inactive | inactive
CC(C)C[C@H](NC(=O)OCc1ccccc1)C(=O)N[C@@H](CC(C)C)C(=O)N[C@@H](CC(C)C)C(=O)NC[C@H](Cc1ccccc1)S(=O)(=O)F |  |  |  | inactive | inactive
CC(C)C[C@@H](CNC(=O)[C@H](Cc1ccccc1)NC(=O)[C@H](CC(C)C)NC(=O)[C@H](CCc1ccccc1)NC(=O)CN1CCOCC1)S(=O)(=O)F |  |  |  | inactive | inactive
CC(C)C[C@@H](CNC(=O)[C@H](CC(C)C)NC(=O)[C@H](CC(C)C)NC(=O)OCc1ccccc1)S(=O)(=O)F | 5 to 7 | 5 to 7 | 5 to 7 | inactive | inactive
CC(C)C[C@@H](CS(=O)(=O)F)NC(=O)[C@H](CC(C)C)NC(=O)[C@H](CC(C)C)NC(=O)[C@H](CC(C)C)NC(=O)OCc1ccccc1 | 10 to 12 | 10 to 12 | 10 to 12 | Active | 
CC(C)C[C@@H](CS(=O)(=O)F)NC(=O)[C@H](CC(C)C)NC(=O)[C@H](CC(C)C)NC(=O)OCc1ccccc1 | 10 to 12 | 10 to 12 | 10 to 12 | Active | 
CC(C)C[C@H](NC(=O)OCc1ccccc1)C(=O)N[C@@H](CC(C)C)C(=O)NC[C@H](Cc1ccccc1)S(=O)(=O)F |  |  |  | inactive | inactive
CC(C)C[C@H](NC(=O)[C@H](CCc1ccccc1)NC(=O)CN1CCOCC1)C(=O)N[C@@H](Cc1ccccc1)C(=O)NC[C@H](Cc1ccccc1)S(=O)(=O)F |  |  |  | inactive | inactive

Reference: ChEMBL document CHEMBL4043117, “Potential peptidic proteasome inhibitors by incorporation of an electrophilic trap based on amino acid derived α-substituted sulfonyl fluorides” (Bioorg Med Chem, 2017)
